Assay results reported in patent US7576128B2 (priority 2004, dated 2009).
Changes are numbered by the printed parent chain. Like-named read-outs stand apart in the source and are kept apart here.

How the values were obtained:
[1] = biological target: T1, hAR (human androgen receptor) (Homo sapiens, UniProt P10275); test: Competitive binding analysis on baculovirus/Sf9 generated hAR extracts with 3H-DHT tracer
T1 construct: made in house; host or cells: baculovirus/Sf9 insect cells
T1 sequence (P10275 1-920): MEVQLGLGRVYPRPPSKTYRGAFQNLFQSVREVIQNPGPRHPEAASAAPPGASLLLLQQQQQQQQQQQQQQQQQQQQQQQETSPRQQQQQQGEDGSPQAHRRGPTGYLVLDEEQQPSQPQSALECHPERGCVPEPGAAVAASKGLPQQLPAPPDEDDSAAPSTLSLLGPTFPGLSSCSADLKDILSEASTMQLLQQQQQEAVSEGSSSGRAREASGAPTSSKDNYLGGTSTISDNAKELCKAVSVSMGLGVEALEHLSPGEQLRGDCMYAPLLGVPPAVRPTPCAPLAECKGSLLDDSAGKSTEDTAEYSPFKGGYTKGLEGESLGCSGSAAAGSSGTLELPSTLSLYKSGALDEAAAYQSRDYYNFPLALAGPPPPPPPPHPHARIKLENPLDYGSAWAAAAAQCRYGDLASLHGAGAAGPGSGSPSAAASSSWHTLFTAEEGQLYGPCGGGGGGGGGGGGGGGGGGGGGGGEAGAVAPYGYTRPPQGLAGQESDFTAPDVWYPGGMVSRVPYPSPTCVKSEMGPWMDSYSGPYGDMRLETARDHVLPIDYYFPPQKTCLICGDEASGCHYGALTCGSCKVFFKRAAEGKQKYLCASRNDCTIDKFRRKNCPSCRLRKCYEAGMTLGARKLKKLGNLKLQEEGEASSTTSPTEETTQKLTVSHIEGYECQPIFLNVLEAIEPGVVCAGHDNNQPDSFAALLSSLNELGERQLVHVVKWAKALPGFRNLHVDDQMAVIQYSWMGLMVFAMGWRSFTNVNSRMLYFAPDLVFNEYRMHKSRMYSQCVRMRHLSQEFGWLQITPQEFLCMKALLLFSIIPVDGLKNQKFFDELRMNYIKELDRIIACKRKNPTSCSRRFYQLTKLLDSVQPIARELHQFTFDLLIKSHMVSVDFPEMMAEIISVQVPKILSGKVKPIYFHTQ
Description: The description below describes how the assay was carried out.
Competitive binding analysis was performed on baculovirus/Sf9 generated hAR extracts in the presence or absence of different concentrations of test agent and a fixed concentration of ^3H-dihydrotestosterone (^3H-DHT) as tracer. This binding assay method is a modification of a protocol previously described (Liao S., et. al. J. Steroid Biochem. 20:11-17 1984). Briefly, progressively decreasing concentrations of compounds are incubated in the presence of hAR extract (Chang et al. P.N.A.S. Vol. 89, pp. 5546-5950,1992), hydroxylapatite, and 1 nM ^3 H-DHT for one hour at 4° C. Subsequently, the binding reactions are washed three times to completely remove excess unbound ^3 H-DHT. hAR bound ^3H-DHT levels are determined in the presence of compounds (=i.e competitive binding) and compared to levels bound when no competitor is present (=i.e. maximum binding). Compound binding affinity to the hAR is expressed as the concentration of compound at which one half of the maximum binding is inhibited.

androgen receptor = biological target: T2, androgen receptor (Homo sapiens, UniProt P10275); test: AR antagonist cell assay, MDA-MB453-MMTV clone 54-19 luciferase reporter; assay type: cell-based; settings: MDA-MB453-MMTV clone 54-19, 100 pM DHT, 17 hr; mean of multiple tests; read-out: AR Cell IC50
T2 sequence (P10275 1-920 Q868H): T1 sequence (P10275 1-920) with Q868H
Description: The compounds ability to antagonize the effects of androgen on the androgen receptor were determined in a whole cell assay as described immediately below.
This cell line is a stable transfected cell line with MDA-MB453 cell background (a human breast tumor cell line expressing androgen receptor). A MMTV minimal promoter containing ARE was first cloned in front of a firefly luciferase reporter gene. Then the cascade was cloned into transfection vector pUV120puro. Electroporation method was used for transfecting MDA-MB-453 cell. Puromycin resistant stable cell line was selected.
• 1. Cells are maintained in culture medium, splitting cells when they reach 80-90% confluence • 2. To test compounds, 10,000 cells/well are plated to opaque 96 cell culture plate in 100 ul/well plating medium, culture for overnight at 37° C. in cell culture incubator • 3. Carefully remove plating medium, then add 80 ul/well of pre-warmed assay medium, add 10 ul/well testing compound (final concentration at) 1000 nM, 200 nM, 40 nM, 8 nM, 1.6 nM, and 0.32 nM), incubate at 37° C. for 30 minutes • 4. Add 10 ul/well freshly prepared DHT (final concentration at 100 pM) to each well, incubate at 37° C. for 17 hr (overnight) • 5.
The results are reported as the mean of multiple tests as described below (the numbers of tests are indicated in the footnote). N.D. denotes that the compound was not tested.

Row | Compound | IC50 ([1]; hAR extract, 1 nM 3H-DHT, one hour at 4° C., mean of multiple tests, read-out: AR Binding IC50) [µM] | IC50 (androgen receptor) [µM] | IC50 [1] [µM]
1 | CCCCC(COc1ccc(C#N)c(C(F)(F)F)c1)C(C)O (stereo not shown) [Example 15, 4-[2-(1-Hydroxy-ethyl)-hexyloxy]-2-tri-fluoromethyl-benzonitrile] | 0.21 | 0.124 | 
2 | C[C@H](O)CC[C@H](C)Oc1ccc(C#N)c(C(F)(F)F)c1 [Example 23, (1S,4S)-4-(4-Hy-droxy-1-methylpentyl-oxy)-2-tri-fluoromethyl-benzonitrile] |  | 0.132 | 0.041
